Results from patent publication US20230233569A1 (Revolution Medicines, Inc., priority 2020, published 2023).

Legend:
KRAS G12D [1] = target: T1, KRAS G12D (Homo sapiens, UniProt P01116+P62937, G12D); test: Ras-Raf disruption / FRET / MOA assay (BRAF RBD); assay type: biochemical; conditions: Ras-Raf disruption, with Cyclophilin A; read-out: KRAS G12D FRET data IC50
Procedure, shortened: (§1)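 TR-FRET in 25 mM HEPES pH 7.3, 100 mM NaCl, 5 mM MgCl2, 0.1% BSA, 0.002% Tween20 with 25 μM Cyclophilin A, 12.5 nM His6-Ras-GMPPNP, 50 nM GST-BRAF RBD; compound 10-point 3-fold series from 30 μM. After 3 h at 25 °C, Eu anti-His/APC anti-GST added for 1.5 h; IC50 from ratio decrease versus DMSO.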

KRAS G12S [2] = target: T2, KRAS G12S (Homo sapiens, UniProt P01116+P62937, G12S); test: Ras-Raf disruption / FRET / MOA assay (BRAF RBD); assay type: biochemical; conditions: Ras-Raf disruption, with Cyclophilin A; read-out: KRAS G12S FRET data IC50
T2 sequence (P01116 1-169 isoform P01116-2 G12S limits assumed): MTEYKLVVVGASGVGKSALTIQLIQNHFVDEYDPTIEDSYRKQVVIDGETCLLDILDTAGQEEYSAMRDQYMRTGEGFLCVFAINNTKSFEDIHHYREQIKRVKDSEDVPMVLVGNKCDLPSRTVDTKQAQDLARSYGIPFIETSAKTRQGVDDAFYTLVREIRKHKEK
T2 sequence (P62937 whole entry): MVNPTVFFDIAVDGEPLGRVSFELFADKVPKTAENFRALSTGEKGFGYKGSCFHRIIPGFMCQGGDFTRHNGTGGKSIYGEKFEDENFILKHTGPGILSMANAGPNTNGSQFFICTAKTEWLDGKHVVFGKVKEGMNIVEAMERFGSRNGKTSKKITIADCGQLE
Procedure, shortened: as §1

KRAS G12V [3] = target: T3, KRAS G12V (Homo sapiens, UniProt P01116+P62937, G12V); test: Ras-Raf disruption / FRET / MOA assay (BRAF RBD); assay type: biochemical; conditions: Ras-Raf disruption, with Cyclophilin A; read-out: KRAS G12V FRET data IC50
T3 sequence (P01116 1-169 isoform P01116-2 G12V limits assumed): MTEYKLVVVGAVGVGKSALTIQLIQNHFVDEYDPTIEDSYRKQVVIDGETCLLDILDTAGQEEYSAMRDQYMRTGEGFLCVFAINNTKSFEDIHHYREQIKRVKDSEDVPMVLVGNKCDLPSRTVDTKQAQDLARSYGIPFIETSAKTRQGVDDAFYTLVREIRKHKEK
T3 sequence (P62937 whole entry): as the sequence (P62937 whole entry) above
Procedure, shortened: as §1

KRAS G13C [4] = target: T4, KRAS G13C (Homo sapiens, UniProt P01116+P62937, G13C); test: Ras-Raf disruption / FRET / MOA assay (BRAF RBD); assay type: biochemical; conditions: Ras-Raf disruption, with Cyclophilin A; read-out: KRAS G13C FRET data IC50
Procedure, shortened: as §1
Target sequence in this assay (P01116 1-169 isoform P01116-2 G13C limits assumed): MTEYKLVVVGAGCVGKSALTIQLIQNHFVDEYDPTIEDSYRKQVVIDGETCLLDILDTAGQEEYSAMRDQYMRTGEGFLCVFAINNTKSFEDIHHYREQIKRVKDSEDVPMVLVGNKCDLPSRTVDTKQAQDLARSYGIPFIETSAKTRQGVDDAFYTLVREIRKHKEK
Target sequence in this assay (P62937 whole entry): as the sequence (P62937 whole entry) above

KRAS G13D [5] = target: T5, KRAS G13D (Homo sapiens, UniProt P01116+P62937, G13D); test: Ras-Raf disruption / FRET / MOA assay (BRAF RBD); assay type: biochemical; conditions: Ras-Raf disruption, with Cyclophilin A; read-out: KRAS G13D FRET data IC50
T5 sequence (P01116 1-169 isoform P01116-2 G13D limits assumed): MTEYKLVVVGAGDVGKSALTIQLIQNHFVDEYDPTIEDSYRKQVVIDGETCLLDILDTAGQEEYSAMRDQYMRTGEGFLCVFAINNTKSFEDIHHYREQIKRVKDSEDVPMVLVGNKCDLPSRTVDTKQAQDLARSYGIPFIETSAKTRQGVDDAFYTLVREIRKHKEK
T5 sequence (P62937 whole entry): as the sequence (P62937 whole entry) above
Procedure, shortened: as §1

KRAS WT [6] = target: T6, KRAS WT (Homo sapiens, UniProt P01116+P62937); test: Ras-Raf disruption / FRET / MOA assay (BRAF RBD); assay type: biochemical; conditions: Ras-Raf disruption, with Cyclophilin A; read-out: KRAS WT FRET data IC50
T6 sequence (P01116 1-169 isoform P01116-2 limits assumed): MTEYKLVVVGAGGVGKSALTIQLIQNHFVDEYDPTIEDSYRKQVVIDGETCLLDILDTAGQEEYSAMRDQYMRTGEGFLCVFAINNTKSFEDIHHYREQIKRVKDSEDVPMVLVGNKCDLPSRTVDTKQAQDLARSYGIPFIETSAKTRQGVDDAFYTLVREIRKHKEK
T6 sequence (P62937 whole entry): as the sequence (P62937 whole entry) above
Procedure, shortened: as §1

NRAS G12C [7] = target: T7, NRAS G12C (Homo sapiens, UniProt P01111+P62937, G12C); test: Ras-Raf disruption / FRET / MOA assay (BRAF RBD); assay type: biochemical; conditions: NRAS G12C; read-out: NRAS G12C FRET data IC50
T7 sequence (P01111 whole entry G12C): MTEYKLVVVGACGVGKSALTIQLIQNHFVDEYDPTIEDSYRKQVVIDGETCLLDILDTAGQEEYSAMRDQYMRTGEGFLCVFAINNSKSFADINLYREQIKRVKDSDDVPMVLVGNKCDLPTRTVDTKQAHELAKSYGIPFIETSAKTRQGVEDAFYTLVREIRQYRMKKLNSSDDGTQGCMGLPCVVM
T7 sequence (P62937 whole entry): as the sequence (P62937 whole entry) above
Procedure, shortened: as §1

NRAS Q61K [8] = target: T8, NRAS Q61K (Homo sapiens, UniProt P01111+P62937, Q61K); test: Ras-Raf disruption / FRET / MOA assay (BRAF RBD); assay type: biochemical; conditions: NRAS Q61K; read-out: NRAS Q61K FRET data IC50
T8 sequence (P01111 whole entry Q61K): as the sequence (P01111 whole entry G12C) above, with C12G, Q61K counted along it
T8 sequence (P62937 whole entry): as the sequence (P62937 whole entry) above
Procedure, shortened: as §1

NRAS Q61R [9] = target: T9, NRAS Q61R (Homo sapiens, UniProt P01111+P62937, Q61R); test: Ras-Raf disruption / FRET / MOA assay (BRAF RBD); assay type: biochemical; conditions: NRAS Q61R; read-out: NRAS Q61R FRET data IC50
T9 sequence (P01111 whole entry Q61R): as the sequence (P01111 whole entry G12C) above, with C12G, Q61R counted along it
T9 sequence (P62937 whole entry): as the sequence (P62937 whole entry) above
Procedure, shortened: as §1

NRAS WT [10] = target: T10, NRAS WT (Homo sapiens, UniProt P01111+P62937); test: Ras-Raf disruption / FRET / MOA assay (BRAF RBD); assay type: biochemical; conditions: NRAS WT; read-out: NRAS WT FRET data IC50
T10 sequence (P01111 whole entry): as the sequence (P01111 whole entry G12C) above, with C12G counted along it
T10 sequence (P62937 whole entry): as the sequence (P62937 whole entry) above
Procedure, shortened: as §1

KRAS G12C [11] = target: T11, KRAS G12C (Homo sapiens, UniProt P01116+P62937, G12C); test: Ras-Raf disruption / FRET / MOA assay (BRAF RBD); assay type: biochemical; conditions: Ras-Raf disruption, with Cyclophilin A; read-out: KRAS G12C FRET data IC50
Procedure, shortened: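 His6-K-Ras G12C-GMPPNP (12.5 nM), GST-BRAF RBD (50 nM) and tagless Cyclophilin A (25 μM) incubated 3 h at 25 °C with compound (10-point 3-fold series from 30 μM), pH 7.3 HEPES buffer. Anti-His Eu/anti-GST APC added for 1.5 h; decreased TR-FRET ratio vs DMSO gives IC50.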
Target sequence in this assay (P01116 1-169 isoform P01116-2 G12C limits assumed): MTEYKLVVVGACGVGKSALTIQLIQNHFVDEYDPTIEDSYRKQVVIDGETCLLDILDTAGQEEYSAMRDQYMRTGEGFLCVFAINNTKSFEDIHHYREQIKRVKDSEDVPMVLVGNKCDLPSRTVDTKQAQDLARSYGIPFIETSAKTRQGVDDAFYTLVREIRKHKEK
Target sequence in this assay (P62937 whole entry): as the sequence (P62937 whole entry) above

Capan-1 (K-Ras G12V) = test: CellTiter-Glo cell viability assay, 5-day treatment; assay type: cell-based; conditions: Homo sapiens, CAPAN-1, 120 h, 5-day treatment; read-out: Capan-1 Cell Viability assay data (K-Ras G12V, IC50)
Procedure, shortened: (§2)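 Viability is read as luminescence on day 5 after direct compound addition to plated cells, following about 30 minutes' room-temperature equilibration. Each signal is scaled to mean DMSO as 100%.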

NCI-H358 (K-Ras G12C) = test: as above; assay type: cell-based; conditions: Homo sapiens, NCI-H358, 120 h, 5-day treatment; read-out: H358 Cell Viability assay data (K-Ras G12C, IC50)
Procedure, shortened: as §2

KRAS G12C [12] = target: T11, KRAS G12C; test: Disruption of BRAF RBD interaction with Ras (FRET / MOA assay, with Cyclophilin A); assay type: biochemical; conditions: read-out: KRAS G12C FRET data, IC50
Procedure, shortened: (§3)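 First, compounds at a ten-point threefold dilution series (highest final concentration 30 μM) were incubated with nucleotide-loaded K-Ras, Cyclophilin A and BRAF RBD for 3 h at 25 °C. Next, detection antibodies were added for 1.5 h. Finally, IC50 was calculated from TR-FRET ratio decreases against DMSO controls.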
Target sequence in this assay (P01116 1-169 isoform P01116-2 G12C): as the sequence (P01116 1-169 isoform P01116-2 G12C limits assumed) above
Target sequence in this assay (P62937 whole entry): as the sequence (P62937 whole entry) above

KRAS G12D [13] = target: T1, KRAS G12D; test: as above; assay type: biochemical; conditions: read-out: KRAS G12D FRET data, IC50
Procedure, shortened: as §3

KRAS G12S [14] = target: T2, KRAS G12S; test: as above; assay type: biochemical; conditions: read-out: KRAS G12S FRET data, IC50
Procedure, shortened: as §3

KRAS G12V [15] = target: T3, KRAS G12V; test: as above; assay type: biochemical; conditions: KRAS G12V; read-out: KRAS G12V FRET data IC50
Procedure, shortened: as §3

KRAS G13C [16] = target: T4, KRAS G13C; test: as above; assay type: biochemical; conditions: read-out: KRAS G13C FRET data, IC50
Procedure, shortened: as §3
Target sequence in this assay (P01116 1-169 isoform P01116-2 G13C): as the sequence (P01116 1-169 isoform P01116-2 G13C limits assumed) above
Target sequence in this assay (P62937 whole entry): as the sequence (P62937 whole entry) above

KRAS G13D [17] = target: T5, KRAS G13D; test: as above; assay type: biochemical; conditions: KRAS G13D; read-out: KRAS G13D FRET data IC50
Procedure, shortened: as §3

KRAS WT [18] = target: T6, KRAS WT; test: as above; assay type: biochemical; conditions: KRAS WT; read-out: KRAS WT FRET data IC50
Procedure, shortened: as §3

NRAS G12C [19] = target: T7, NRAS G12C; test: as above; assay type: biochemical; conditions: NRAS G12C; read-out: NRAS G12C FRET data IC50
KRAS Q61H = KRAS Q61H (Homo sapiens, UniProt P01116+P62937, Q61H); test: as above; assay type: biochemical; conditions: KRAS Q61H; read-out: KRAS Q61H FRET data IC50
KRAS Q61H, sequence (P01116 1-169 isoform P01116-2 Q61H limits assumed): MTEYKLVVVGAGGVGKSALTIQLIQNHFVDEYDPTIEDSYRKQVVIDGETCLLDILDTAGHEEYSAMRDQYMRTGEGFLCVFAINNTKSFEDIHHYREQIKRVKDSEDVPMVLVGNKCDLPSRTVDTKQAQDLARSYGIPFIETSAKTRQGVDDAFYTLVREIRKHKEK
KRAS Q61H, sequence (P62937 whole entry): as the sequence (P62937 whole entry) above
Procedure, shortened: (§4)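 TR-FRET in 25 mM HEPES pH 7.3, 100 mM NaCl, 5 mM MgCl2, 0.1% BSA: 25 μM Cyclophilin A, 12.5 nM His6-Ras-GMPPNP, 50 nM GST-BRAF RBD with compound (10-point 3-fold series from 30 μM), 3 h at 25° C. Anti-His Eu/anti-GST APC added, 1.5 h more; IC50 from decreased FRET ratio versus DMSO.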

NRAS Q61K [20] = target: T8, NRAS Q61K; test: as above; assay type: biochemical; conditions: NRAS Q61K; read-out: NRAS Q61K FRET data IC50
Procedure, shortened: as §4

NRAS Q61R [21] = target: T9, NRAS Q61R; test: as above; assay type: biochemical; conditions: NRAS Q61R; read-out: NRAS Q61R FRET data IC50
Procedure, shortened: as §4

NRAS WT [22] = target: T10, NRAS WT; test: as above; assay type: biochemical; conditions: NRAS WT; read-out: NRAS WT FRET data IC50
Procedure, shortened: as §4

T1 sequence (P01116 1-169 isoform P01116-2 G12D limits assumed): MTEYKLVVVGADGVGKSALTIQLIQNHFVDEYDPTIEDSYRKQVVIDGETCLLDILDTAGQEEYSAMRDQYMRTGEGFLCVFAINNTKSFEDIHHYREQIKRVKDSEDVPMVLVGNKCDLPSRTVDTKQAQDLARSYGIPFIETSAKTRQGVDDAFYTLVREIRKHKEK
T1 sequence (P62937 whole entry): as the sequence (P62937 whole entry) above

IC50 (NCI-H358 (K-Ras G12C)) [nM]	IC50 (KRAS G12C [12]) [nM]	IC50 (KRAS G12D [13]) [nM]	IC50 (KRAS G12S [14]) [nM]	IC50 (KRAS G12V [15]) [nM]	IC50 (KRAS G13C [16]) [nM]	IC50 (KRAS G13D [17]) [nM]	IC50 (KRAS WT [18]) [nM]	IC50 (NRAS G12C [19]) [nM]	IC50 (KRAS Q61H) [nM]	IC50 (NRAS Q61K [20]) [nM]	IC50 (NRAS Q61R [21]) [nM]	IC50 (NRAS WT [22]) [nM]	Compound	IC50 (Capan-1 (K-Ras G12V)) [nM]	also measured
–	–	–	–	–	–	–	–	–	–	–	–	–	CCn1c(-c2cccnc2[C@H](C)OC)c2c3cc(ccc31)-c1cccc(c1)C[C@H](NC(=O)[C@H](C1CCCC1)N1CC[C@]3(CCN(C(=O)[C@@H]4N[C@@H]4C4CC4)C3)C1=O)C(=O)N1CCC[C@H](N1)C(=O)OCC(C)(C)C2 [Example 313]	–	IC50 (KRAS G12D [1]): 100 to 1000 nM; IC50 (KRAS G12S [2]): 1000 to 10000 nM; IC50 (KRAS G12V [3]): 1000 to 10000 nM; IC50 (KRAS G13C [4]): 100 to 1000 nM; IC50 (KRAS G13D [5]): 1000 to 10000 nM; IC50 (KRAS WT [6]): 1000 to 10000 nM; IC50 (NRAS G12C [7]): 100 to 1000 nM; IC50 (NRAS Q61K [8]): 1000 to 10000 nM; IC50 (NRAS Q61R [9]): 1000 to 10000 nM; IC50 (NRAS WT [10]): 1000 to 10000 nM; IC50 (KRAS G12C [11]): 100 to 1000 nM
10 to 100	10 to 100	100 to 1000	100 to 1000	100 to 1000	100 to 1000	100 to 1000	100 to 1000	10 to 100	10 to 100	10 to 100	100 to 1000	100 to 1000	CCn1c(-c2cccnc2[C@H](C)OC)c2c3cc(ccc31)-c1csc(n1)C[C@H](NC(=O)[C@H](C(C)C)N(C)C(=O)N1CC3(CC(N(C)C)C3)C1)C(=O)N1CCC[C@H](N1)C(=O)OCC(C)(C)C2 (atropisomer, axis not shown) [Example A280]	10 to 100	–
100 to 1000	100 to 1000	1000 to 10000	1000 to 10000	1000 to 10000	100 to 1000	100 to 1000	100 to 1000	100 to 1000	100 to 1000	1000 to 10000	1000 to 10000	100 to 1000	CCn1c(-c2cccnc2[C@H](C)OC)c2c3cc(ccc31)-c1csc(n1)C[C@H](NC(=O)[C@H](C(C)C)N(C)C(=O)N(C)C[C@@H]1CCCN1C)C(=O)N1CCC[C@H](N1)C(=O)OCC(C)(C)C2 [Example A504]	100 to 1000	–
